Source: patent publication US4393055A, “Hydroxyalkyl ether derivatives of rutin poly(H-)sulfate and method of use” (American Cyanamid Company, priority 1982, dated 1983)
Several values for one entry are separate records, joined by “and”; a condition that tells them apart may be missing. Identical values can stand only once. Counter-ions that a name gives are not always drawn.

Key:
activated human C1 = activated human C1 (Homo sapiens, UniProt P09871); test: Test Code 026 (C1 inhibitor); type: biochemical; conditions: twofold serial dilutions; higher well number indicates higher activity
Experimental: (§1) An active inhibitor protects C2 from C1 and C4; (ii) Cap 50 Test--Here, appropriate amounts of the test compound are added to a pool of guinea pig serum in vitro, after which the undiluted serum capillary tube assay referred to above is run. The concentration of compound inhibiting 50% is reported; and (iii) Guinea Pig Intraperitoneal Test (GPIP)--Guinea pigs weighing about 300 g. are dosed intraperitoneally (i.p.) with 200 mg./kg. of the test compound dissolved in saline and adjusted to pH 7-8. Approximately 0.4 ml. blood samples, taken by orbital sinus puncture 30 minutes and one hour after injections, are collected directly into centrifuge tubes; 5 ml. blood samples, taken by decapitation 2 hours after injection are collected directly into beakers. The samples are allowed to clot, centrifuged, and the resultant sera are assayed for complement activity using the capillary complement assay. Percent inhibition are calculated by comparison with simultaneous controls.

[1] = test system: complement activity of sera; test: Guinea Pig Intraperitoneal Test (GPIP); type: in vivo; conditions: 200 mg./kg. i.p.
Experimental: as §1, with “[…],” for “taken by orbital sinus puncture 30 minutes and one hour after injections,”, “taken by decapitation 2 hours after injection are collected directly into” left out

[2] = test system: total hemolytic complement activity; conditions: in vitro and in vivo; judged by reduction in total hemolytic complement activity; cited from earlier work

Chain of activated human C1 (P09871 16-437 limits assumed): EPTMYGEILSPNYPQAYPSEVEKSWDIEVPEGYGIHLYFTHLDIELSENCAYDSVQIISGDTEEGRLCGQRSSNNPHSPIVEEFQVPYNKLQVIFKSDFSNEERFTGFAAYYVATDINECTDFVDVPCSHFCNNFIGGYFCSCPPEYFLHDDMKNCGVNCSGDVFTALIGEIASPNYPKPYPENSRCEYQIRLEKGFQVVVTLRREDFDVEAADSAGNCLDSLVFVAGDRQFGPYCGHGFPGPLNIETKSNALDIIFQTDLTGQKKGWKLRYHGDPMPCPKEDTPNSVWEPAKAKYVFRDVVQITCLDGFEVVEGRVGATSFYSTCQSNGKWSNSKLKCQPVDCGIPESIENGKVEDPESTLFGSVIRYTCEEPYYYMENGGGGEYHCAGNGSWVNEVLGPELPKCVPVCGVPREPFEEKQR
Chain of activated human C1 (P09871 438-688 limits assumed): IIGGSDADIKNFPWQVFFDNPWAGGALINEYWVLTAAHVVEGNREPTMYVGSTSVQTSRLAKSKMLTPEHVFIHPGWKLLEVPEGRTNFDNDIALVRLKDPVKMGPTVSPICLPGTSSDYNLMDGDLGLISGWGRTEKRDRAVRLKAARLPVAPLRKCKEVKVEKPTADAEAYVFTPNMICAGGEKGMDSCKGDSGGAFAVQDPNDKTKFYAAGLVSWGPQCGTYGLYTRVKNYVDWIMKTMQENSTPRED
Chain of activated human C1 (P00736 18-463 partner limits assumed): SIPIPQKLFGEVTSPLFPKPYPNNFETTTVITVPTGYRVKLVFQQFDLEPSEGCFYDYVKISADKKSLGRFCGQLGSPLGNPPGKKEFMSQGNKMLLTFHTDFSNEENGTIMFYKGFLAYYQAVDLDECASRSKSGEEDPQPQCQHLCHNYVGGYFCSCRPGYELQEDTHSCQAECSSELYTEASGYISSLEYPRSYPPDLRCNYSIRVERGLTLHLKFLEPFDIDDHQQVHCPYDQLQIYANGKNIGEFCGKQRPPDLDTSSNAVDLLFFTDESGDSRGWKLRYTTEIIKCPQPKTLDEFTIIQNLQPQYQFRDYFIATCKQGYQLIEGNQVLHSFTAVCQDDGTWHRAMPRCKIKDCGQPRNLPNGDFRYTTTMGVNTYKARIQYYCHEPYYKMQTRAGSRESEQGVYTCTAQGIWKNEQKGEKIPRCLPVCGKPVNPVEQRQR
Chain of activated human C1 (P00736 464-705 partner limits assumed): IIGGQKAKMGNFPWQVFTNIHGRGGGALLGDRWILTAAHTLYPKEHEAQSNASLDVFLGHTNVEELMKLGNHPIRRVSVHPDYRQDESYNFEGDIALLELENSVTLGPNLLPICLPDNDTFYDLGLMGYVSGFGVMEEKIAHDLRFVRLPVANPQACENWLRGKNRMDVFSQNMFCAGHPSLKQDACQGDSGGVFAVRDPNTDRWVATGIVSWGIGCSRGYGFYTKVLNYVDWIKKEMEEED

In vitro Activity 026 (activity in wells, serial dilution assay) (activated human C1) | Compound | In vivo Activity (Guinea Pig) Intraperitoneal % Inhibition ([1]; Time (hours) 6) | In vivo Activity (Guinea Pig) Intraperitoneal % Inhibition ([1]; Time (hours) 4) [%] | In vivo Activity (Guinea Pig) Intraperitoneal % Inhibition ([1]; Time (hours) 24) [%] | anticomplementary activity on human serum [2]
7-10 wells | C[C@@H]1O[C@@H](OC[C@H]2O[C@@H](Oc3c(-c4ccc(OCCOS(=O)(=O)O)c(OCCOS(=O)(=O)O)c4)oc4cc(OCCOS(=O)(=O)O)cc(OS(=O)(=O)O)c4c3=O)[C@H](OS(=O)(=O)O)[C@@H](OS(=O)(=O)O)[C@@H]2OS(=O)(=O)O)[C@H](OS(=O)(=O)O)[C@H](OS(=O)(=O)O)[C@H]1OS(=O)(=O)O [3',4',7-Tris(2-hydroxyethyl)rutin, deca(H-sulfate)sodium salt] | 48% and 82% |  |  | 
6-12 wells | C[C@@H]1O[C@@H](OC[C@H]2O[C@@H](Oc3c(-c4ccc(OS(=O)(=O)O)c(OS(=O)(=O)O)c4)oc4cc(OCCOS(=O)(=O)O)cc(OS(=O)(=O)O)c4c3=O)[C@H](OS(=O)(=O)O)[C@@H](OS(=O)(=O)O)[C@@H]2OS(=O)(=O)O)[C@H](OS(=O)(=O)O)[C@H](OS(=O)(=O)O)[C@H]1OS(=O)(=O)O [7-(2-hydroxyethyl)rutin, deca(H-sulfate)sodium salt] | 71% | 88 | 20 | 
9-12 wells | C[C@@H]1O[C@@H](OC[C@H]2O[C@@H](Oc3c(-c4ccc(OS(=O)(=O)O)c(OS(=O)(=O)O)c4)oc4cc(OCCOS(=O)(=O)O)cc(O)c4c3=O)[C@H](OS(=O)(=O)O)[C@@H](OS(=O)(=O)O)[C@@H]2OS(=O)(=O)O)[C@H](OS(=O)(=O)O)[C@H](OS(=O)(=O)O)[C@H]1OS(=O)(=O)O [7-(2-hydroxyethyl)rutin, nona(H-sulfate)sodium salt] | 71% | 86 | 35 | 
 | pentosanpolysulfoester |  |  |  | has an anticomplementary activity on human serum, both in vitro and in vivo
